In patent US20020132809A1, “Heterocyclic carboxamide derivatives as inhibitors of nitric oxide production” (Fujisawa Pharmaceutical Co. Ltd., priority 1998, published 2002):

SMILES | melting point
CCn1c(-c2ccc(-n3ccnc3)cc2)cnc1[C@H](Cc1ccncc1)N(C=O)c1cc2ccccc2[nH]1 [Compound (e), (1S)-N-[1-[1-ethyl-5-[4-(1-imidazolyl)phenyl]imidazol-2-yl]-2-(4-pyridyl)ethyl](indol-2-yl)formamide] | 255 to 260 °C (dec.)
Cn1c(-c2ccc(-c3ccncc3)cc2)cnc1[C@H](Cc1ccccn1)N(C=O)c1cc2cc(Cl)ccc2o1 [Example 37, (1S)-(5-Chlorobenzo[b]furan-2-yl)-N-[1-[1-methyl-5-[4-(4-pyridyl)-phenyl]imidazol-2-yl]-2-(2-pyridyl)ethyl]formamide] | 135 to 140 °C
Cn1c(-c2ccc([N+](=O)[O-])cc2)cnc1[C@H](Cc1ccccn1)N(C=O)c1cc2cc(C(F)(F)F)ccc2o1 [Example 39, (1S)-N-[1-[1-Methyl-5-(4-nitrophenyl)imidazol-2-yl]-2-(2-pyridyl)-ethyl][5-(trifluoromethyl)benzo[b]furan-2-yl]formamide] | 192 to 194 °C
CCCn1c(-c2ccc(-n3ccnc3)cc2)cnc1[C@H](Cc1ccccn1)N(C=O)c1cc2cc(Cl)ccc2o1 [Example 48, (1S)-(5-Chlorobenzo[b]furan-2-yl)-N-[1-[5-[4-(1-imidazolyl)-phenyl]-1-propylimidazol-2-yl]-2-(2-pyridyl)ethyl]formamide] | 173 to 175 °C
COc1ccc2oc(N(C=O)[C@@H](Cc3ccccn3)c3ncc(-c4ccc(N5CCOCC5)cc4)n3C)cc2c1 [Example 3, (1S)-(5-Methoxybenzo[b]furan-2-yl)-N-[1-[1-methyl-5-(4-morpholinophenyl)imidazol-2-yl]-2-(2-pyridyl)ethyl]formamide] | 122 to 124 °C
CCn1c(-c2ccc(-n3ccnc3)cc2)cnc1[C@H](Cc1ccccn1)N(C=O)c1cc2cc(F)ccc2o1 [Example 55, (1S)-N-[1-[1-Ethyl-5-[4-(1-imidazolyl)phenyl]imidazol-2-yl]-2-(2-pyridyl)ethyl](5-fluorobenzo[b]furan-2-yl)formamide] | 80 to 84 °C
Cc1nccn1-c1ccc(-c2cnc([C@H](Cc3ccccn3)N(C=O)c3cc4ccccc4[nH]3)n2C)cc1 [Example 14, (1S)-(Indol-2-yl)-N-[1-[1-methyl-5-[4-(2-methylimidazol-1-yl)-phenyl]imidazol-2-yl]-2-(2-pyridyl)ethyl]formamide] | 207 to 211 °C
Cn1c(-c2ccc(-n3ccnc3)cc2)cnc1[C@H](Cc1ccccn1)N(C=O)c1cc2cc(F)ccc2o1 [Example 54, (1S)-(5-Fluorobenzo[b]furan-2-yl)-N-[1-[5-[4-(1-imidazolyl)-phenyl]-1-methylimidazol-2-yl]-2-(2-pyridyl)ethyl]formamide] | 180 to 182 °C
Cn1c(-c2ccc(-n3ccnc3)cc2)cnc1[C@H](Cc1ccccn1)N(C=O)c1cc2ccccc2s1 [Compound (c), (1S)-(benzo[b]thiophen-2-yl)-N-[1-[5-[4-(1-imidazolyl) -phenyl]-1-methylimidazol-2-yl]-2-(2-pyridyl)ethyl]formamide] | 190 to 193 °C
Cn1c(-c2ccc(-c3cccnc3)cc2)cnc1[C@H](Cc1ccccn1)N(C=O)c1cc2cc(Cl)ccc2o1 [Example 34, (1S)-(5-Chlorobenzo[b]furan-2-yl)-N-[1-[1-methyl-5-[4-(3-pyridyl)-phenyl]imidazol-2-yl]-2-(2-pyridyl)ethyl]formamide] | 158 to 160 °C
Cn1c(-c2ccc(-n3cnc4ccccc43)cc2)cnc1[C@H](Cc1ccccn1)N(C=O)c1cc2ccccc2[nH]1 [Example 31, (1S)-N-[1-[5-[4-(1-Benzimidazolyl)phenyl]-1-methylimidazol-2-yl]-2-(2-pyridyl)ethyl](indol-2-yl)formamide] | 233 to 237 °C
CCCn1c(-c2ccc(-n3ccnc3)cc2)cnc1[C@H](Cc1ccncc1)n1c(NC=O)cc2ccccc21 [Example 52, (1S)-N-[1-[5-[4-(1-Imidazolyl)phenyl]-1-propylimidazol-2-yl]-2-(4-pyridyl)ethyl](indol-2-yl) formamide] | 238 to 240 °C (dec.)
Cn1c(-c2ccc(-c3cccs3)cc2)cnc1[C@H](Cc1ccccn1)N(C=O)c1cc2cc(Cl)ccc2o1 [Example 17, (1S)-(5-Chlorobenzo[b]furan-2-yl)-N-[1-[1-methyl-5-[4-(2-thienyl)-phenyl]imidazol-2-yl]-2-(2-pyridyl)ethyl]formamide] | 110 to 114 °C
CCn1c(-c2ccc(-n3ccnc3)cc2)cnc1[C@H](Cc1ccccn1)N(C=O)c1cc2cc(OC)ccc2o1.Cl.Cl.Cl | 190 to 195 °C
Cn1c(-c2ccc(-c3cccnc3)cc2)cnc1[C@H](Cc1ccccn1)N(C=O)c1cc2cc(Br)ccc2o1 [Example 35, (1S)-(5-Bromobenzo[b]furan-2-yl)-N-[1-[1-methyl-5-[4-(3-pyridyl)-phenyl]imidazol-2-yl]-2-(2-pyridyl)ethyl]formamide] | 168 to 171 °C
CCn1c(-c2ccc(-n3ccnc3)cc2)cnc1[C@H](Cc1ccccn1)N(C=O)c1cc2cc(Cl)ccc2o1.Cl.Cl.Cl | 198 to 203 °C

SMILES | melting point
Cc1nc([C@H](Cc2ccccn2)N(C=O)c2cc3ccccc3[nH]2)n(C)c1-c1ccc(-n2ccnc2)cc1 [Example 23, (1S)-N-[1-[5-[4-(1-Imidazolyl)phenyl]-1,4-dimethylimidazol-2-yl]-2-(2-pyridyl)ethyl](indol-2-yl)formamide] | 156 to 157 °C
Cn1c(-c2ccc(-c3nccs3)cc2)cnc1[C@H](Cc1ccccn1)N(C=O)c1cc2cc(Cl)ccc2o1 [Example 18, (1S)-(5-Chlorobenzo[b]furan-2-yl)-N-[1-[1-methyl-5-[4-(2-thiazolyl)phenyl]imidazol-2-yl]-2-(2-pyridyl)ethyl]formamide] | 144 to 146 °C
Cn1c(-c2ccc(-n3ccnc3)cc2)cnc1[C@H](Cc1ccccn1)N(C=O)c1cc2ccc(Cl)cc2o1 [Example 11, (1S)-(6-Chlorobenzo[b]furan-2-yl)-N-[1-[5-[4-(1-imidazolyl)-phenyl]-1-methylimidazol-2-yl]-2-(2-pyridyl)ethyl]formamide] | 165 to 169 °C
Cn1c(-c2ccc(-n3cnc4ccccc43)cc2)cnc1[C@H](Cc1ccccn1)N(C=O)c1cc2ccccc2o1 [Example 32, (1S)-N-[1-[5-[4-(1-Benzimidazolyl)phenyl]-1-methylimidazol-2-yl]-2-(2-pyridyl)ethyl](benzo[b]furan-2-yl)formamide] | 152 to 155 °C
Cn1c(-c2ccc(-n3ccnc3)cc2)cnc1[C@H](Cc1ccccn1)N(C=O)c1cc2cccc(Cl)c2o1 [Example 68, (1S)-(7-Chlorobenzo[b]furan-2-yl)-N-[1-[5-[4-(1-imidazolyl)phenyl]-1-methylimidazol-2-yl]-2-(2-pyridyl)ethyl]formamide] | 182 to 184 °C
Cn1c(-c2ccc(-n3ccnc3)cc2)cnc1[C@H](Cc1ccccn1)N(C=O)c1cc2cc([N+](=O)[O-])ccc2o1 [Example 50, (1S)-N-[1-[5-[4-(1-Imidazolyl)phenyl]-1-methylimidazol-2-yl]-2-(2-pyridyl)ethyl](5-nitrobenzo[b]furan-2-yl)formamide] | 221 to 223 °C
COc1ccc2oc(N(C=O)[C@@H](Cc3ccccn3)c3ncc(-c4ccc([N+](=O)[O-])cc4)n3C)cc2c1 [Compound (f), (1S)-(5-methoxybenzo[b]furan-2-yl)-N-[1-[1-methyl-5-(4-nitrophenyl)imidazol-2-yl]-2-(2-pyridyl)ethyl]formamide] | 210 to 211 °C
Cn1c(-c2ccc(-c3ccccc3)cc2)cnc1[C@H](Cc1ccccn1)N(C=O)c1cc2cc(Br)ccc2o1 [Compound (b), (1S)-N-[1-[5-(4-biphenylyl)-1-methylimidazol-2-yl]-2-(2-pyridyl)ethyl](5-bromobenzo[b]furan-2-yl)formamide] | 180.5 to 181.5 °C
Cn1c(-c2ccc(-c3cncs3)cc2)cnc1[C@H](Cc1ccccn1)N(C=O)c1cc2cc(Cl)ccc2o1 [Example 38, (1S)-(5-Chlorobenzo[b]furan-2-yl)-N-[1-[1-methyl-5-[4-(5-thiazolyl)phenyl]imidazol-2-yl]-2-(2-pyridyl)ethyl]formamide] | 165 to 167 °C
Cc1nccn1-c1ccc(-c2cnc([C@H](Cc3ccccn3)N(C=O)c3cc4cc(Cl)ccc4o3)n2C)cc1 [Example 70, (1S)-(5-Chlorobenzo[b]furan-2-yl)-N-[1[-1-methyl-5-[4-(2-methylimidazol-1-yl)phenyl]imidazol-2-yl]-2-(2-pyridyl)ethyl]formamide] | 159 to 161 °C
Cn1c(-c2ccc(-c3ccccn3)cc2)cnc1[C@H](Cc1ccccn1)N(C=O)c1cc2cc(Cl)ccc2o1 [Example 36, (1S)-(5-Chlorobenzo[b]furan-2-yl)-N-[1-[1-methyl-5-[4-(2-pyridyl)-phenyl]imidazol-2-yl]-2-(2-pyridyl)ethyl]formamide] | 175 to 180 °C
Cc1nccn1-c1ccc(-c2cnc([C@H](Cc3ccccn3)N(C=O)c3cc4ccccc4o3)n2C)cc1 [Example 15, (1S)-(Benzo[b]furan-2-yl)-N-[1-[1-methyl-5-[4-(2-methylimidazol-1-yl)phenyl]imidazol-2-yl]-2-(2-pyridyl)ethyl]formamide] | 167 to 171 °C
Cn1c(-c2ccc(-n3ccnc3)cc2)cnc1[C@H](Cc1ccccn1)N(C=O)c1cc2cc([N+](=O)[O-])ccc2s1 [Compound (d), (1S)-N-[1-[5-[4-(1-imidazolyl)phenyl]-1-methylimidazol-2-yl]-2-(2-pyridyl)ethyl](5-nitrobenzo[b]thiophen-2-yl)formamide] | 228 to 231 °C
Cn1c(-c2ccc(-n3ccnc3)cc2)cnc1[C@H](Cc1ccccn1)N(C=O)c1cc2cccnc2o1 [Example 27, (1S)-(Furo[2,3-b]pyridin-2-yl)-N-[1-[5-[4-(1-imidazolyl)phenyl]-1-methylimidazol-2-yl]-2-(2-pyridyl)ethyl]formamide] | 108 to 110 °C
CCn1c(-c2ccc(-n3ccnc3)cc2)cnc1[C@H](Cc1ccccn1)N(C=O)c1cc2cc([N+](=O)[O-])ccc2o1.Cl.Cl.Cl | 190 to 200 °C
Cn1c(-c2ccc([N+](=O)[O-])cc2)cnc1[C@H](Cc1ccccn1)N(C=O)c1cc2cc(Cl)ccc2o1 [Example 12, (1S)-(5-Chlorobenzo[b]furan-2-yl)-N-[1-[1-methyl-5-(4-nitrophenyl)imidazol-2-yl]-2-(2-pyridyl)ethyl]formamide] | 199 to 201 °C
